Patent US20240400555A1 (Initial Therapeutics, Inc., priority 2023, published 2024)

Test system: MV-4-11 cells
Assay: Cell Viability Assay in MV-4-11 Cells
Format: cell-based
Conditions: Homo sapiens, MV4-11, 72 h, MV-4-11 cells, 72 h, Cell-Titer Glo; read-out: IC50
Outline: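 MV-4-11 cells at 7,000/well in IMDM with 10% FBS, exposed to compound for 72 h. Viability by CellTiter-Glo luminescence, normalized to DMSO as 100%, fitted with a four-parameter curve.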

| Structure (SMILES) | IC50 [nM] |
| --- | --- |
| COCCn1cc(-c2ccc(C(=O)N(c3nccc4scc(C)c34)[C@@H]3CCCNC3)cc2)nn1 [Example 639, (R)-4-(1-(2-methoxyethyl)-1H-1,2,3-triazol-4-yl)-N-(3-methylthieno[3,2-c]pyridin-4-yl)-N-(piperidin-3-yl)benzamide] | 150 |
| COCCn1cc(-c2ccc(C(=O)N(c3nccc4scc(C)c34)[C@@H]3CCCNC3)c(F)c2)nn1 [Example 640, (R)-2-fluoro-4-(1-(2-methoxyethyl)-1H-1,2,3-triazol-4-yl)-N-(3-methylthieno[3,2-c]pyridin-4-yl)-N-(piperidin-3-yl)benzamide] | 85 |
| Cc1cc(C)c2c(N(C(=O)c3ccc(-c4nnc(C)s4)cc3F)[C@@H]3CCCNC3)nccc2c1 [Example 641, (R)—N-(6,8-dimethylisoquinolin-1-yl)-2-fluoro-4-(5-methyl-1,3,4-thiadiazol-2-yl)-N-(piperidin-3-yl)benzamide] | 56 |
| Cc1cc(C)c2c(N(C(=O)c3ccc(-c4nnc(C)o4)nc3)[C@@H]3CCCNC3)nccc2c1 [Example 642, (R)—N-(6,8-dimethylisoquinolin-1-yl)-6-(5-methyl-1,3,4-oxadiazol-2-yl)-N-(piperidin-3-yl)nicotinamide] | 160 |
| Cc1cc(C)c2c(N(C(=O)c3ccc(-c4nnc(C)o4)cc3F)[C@@H]3CCCNC3)nccc2c1 [Example 643, (R)—N-(6,8-dimethylisoquinolin-1-yl)-2-fluoro-4-(5-methyl-1,3,4-oxadiazol-2-yl)-N-(piperidin-3-yl)benzamide] | 64 |
| Cc1cccc2ccnc(N(C(=O)c3ccc(N4CCOC(C)(C)C4)cc3F)[C@@H]3CCCNC3)c12 [Example 644, 4-(2,2-dimethylmorpholin-4-yl)-2-fluoro-N-(8-methyl-1-isoquinolyl)-N-[(3R)-3-piperidyl] benzamide] | > 6300 |
| Cc1cccc2ccnc(N(C(=O)c3ccc(N4CCOc5ccccc54)cc3F)[C@@H]3CCCNC3)c12 [Example 645, 4-(2,3-dihydro-1,4-benzoxazin-4-yl)-2-fluoro-N-(8-methyl-1-isoquinolyl)-N-[(3R)-3-piperidyl] benzamide] | 2400 |
| Cc1cccc2ccnc(N(C(=O)c3ccc(N4CCOc5cccnc54)cc3F)[C@@H]3CCCNC3)c12 [Example 646, 4-(2,3-dihydropyrido[3,2-b][1,4]oxazin-4-yl)-2-fluoro-N-(8-methyl-1-isoquinolyl)-N-[(3R)-3-piperidyl]benzamide] | 2200 |
| Cc1nnc(-c2ccc(C(=O)N(c3nccc4cc(F)cc(C)c34)[C@@H]3CCCNC3)cn2)s1 [Example 647, N-(6-fluoro-8-methyl-1-isoquinolyl)-6-(5-methyl-1,3,4-thiadiazol-2-yl)-N-[(3R)-3-piperidyl] pyridine-3-carboxamide] | 130 |
| Cc1cc(C)c2c(N(C(=O)c3ccc(-c4nnc(C)s4)nc3)[C@@H]3CCCNC3)nccc2c1 [Example 648, (R)—N-(6,8-dimethylisoquinolin-1-yl)-6-(5-methyl-1,3,4-thiadiazol-2-yl)-N-(piperidin-3-yl)nicotinamide] | 39 |
| CCc1nnc(-c2ccc(C(=O)N(c3nccc4scc(C)c34)[C@@H]3CCCNC3)c(F)c2)o1 [Example 649, (R)-4-(5-ethyl-1,3,4-oxadiazol-2-yl)-2-fluoro-N-(3-methylthieno[3,2-c]pyridin-4-yl)-N-(piperidin-3-yl)benzamide] | 170 |
| Cc1cc(F)cc2ccnc(N(C(=O)c3ccc(-c4nnc(O)s4)cc3F)[C@@H]3CCCNC3)c12 [Example 650, 2-fluoro-N-(6-fluoro-8-methyl-1-isoquinolyl)-4-(5-hydroxy-1,3,4-thiadiazol-2-yl)-N-[(3R)-3-piperidyl]benzamide] | 3600 |
| C=C(C)c1csc2ccnc(N(C(=O)c3ccc(-c4nnc(C)s4)cc3F)[C@@H]3CCCNC3)c12 [Example 651, 2-fluoro-N-(3-isopropenylthieno[3,2-c]686yridine-4-yl)-4-(5-methyl-1,3,4-thiadiazol-2-yl)-N-[(3R)-3-piperidyl]benzamide] | 460 |
| C#Cc1csc2ccnc(N(C(=O)c3ccc(-c4nnc(C)s4)cc3F)[C@@H]3CCCNC3)c12 [Example 652, N-(3-ethynylthieno[3,2-c]pyridine-4-yl)-2-fluoro-4-(5-methyl-1,3,4-thiadiazol-2-yl)-N-[(3R)-3-piperidyl] benzamide] | 180 |
| Cc1nnc(-c2ccc(C(=O)N(c3nccc4scc(Cl)c34)[C@@H]3CCCNC3)c(F)c2)s1 [Example 653, N-(3-chlorothieno[3,2-c] 690yridine-4-yl)-2-fluoro-4-(5-methyl-1,3,4-thiadiazol-2-yl)-N-[(3R)-3-piperidyl] benzamide] | 180 |
| CCc1nnc(-c2ccc(C(=O)N(c3nccc4cc(Cl)cc(C)c34)[C@@H]3CCCNC3)c(F)c2)o1 [Example 654, (R)—N-(6-chloro-8-methylisoquinolin-1-yl)-4-(5-ethyl-1,3,4-oxadiazol-2-yl)-2-fluoro-N-(piperidin-3-yl)benzamide] | 150 |

| Structure (SMILES) | IC50 [nM] |
| --- | --- |
| Cc1cn(-c2ccc(C(=O)N(c3nccc4c(F)ccc(C)c34)[C@@H]3CCCNC3)c(F)c2)nn1 [Example 655, (R)-2-fluoro-N-(5-fluoro-8-methylisoquinolin-1-yl)-4-(4-methyl-1H-1,2,3-triazol-1-yl)-N-(piperidin-3-yl)benzamide] | 84 |
| Cc1ccc(F)c2ccnc(N(C(=O)c3ccc(-c4cn(C)nn4)cc3)[C@@H]3CCCNC3)c12 [Example 656, (R)—N-(5-fluoro-8-methylisoquinolin-1-yl)-4-(1-methyl-1H-1,2,3-triazol-4-yl)-N-(piperidin-3-yl)benzamide] | 180 |
| CCc1nnc(-c2ccc(C(=O)N(c3nccc4c(F)ccc(C)c34)[C@@H]3CCCNC3)c(F)c2)s1 [Example 657, (R)-4-(5-ethyl-1,3,4-thiadiazol-2-yl)-2-fluoro-N-(5-fluoro-8-methylisoquinolin-1-yl)-N-(piperidin-3-yl)benzamide] | 170 |
| Cc1cc(C2CCN(C(=O)N(c3nccc4cc(F)cc(C)c34)[C@@H]3CCCNC3)CC2)on1 [Example 658, (R)—N-(6-fluoro-8-methylisoquinolin-1-yl)-4-(3-methylisoxazol-5-yl)-N-(piperidin-3-yl)piperidine-1-carboxamide] | 610 |
| Cc1cc(C2CCN(C(=O)N(c3nccc4c(F)ccc(C)c34)[C@@H]3CCCNC3)CC2)on1 [Example 659, (R)—N-(5-fluoro-8-methylisoquinolin-1-yl)-4-(3-methylisoxazol-5-yl)-N-(piperidin-3-yl)piperidine-1-carboxamide] | 510 |
| Cc1nnc(-c2ccc(C(=O)N(c3nccc4c(F)ccc(C)c34)[C@@H]3CCCNC3)c(F)c2)o1 [Example 660, (R)-2-fluoro-N-(5-fluoro-8-methylisoquinolin-1-yl)-4-(5-methyl-1,3,4-oxadiazol-2-yl)-N-(piperidin-3-yl)benzamide] | 200 |
| Cc1ccc(F)c2ccnc(N(C(=O)c3ccc(Nc4ncccn4)cc3F)[C@@H]3CCCNC3)c12 [Example 661, (R)-2-fluoro-N-(5-fluoro-8-methylisoquinolin-1-yl)-N-(piperidin-3-yl)-4-(pyrimidin-2-ylamino)benzamide] | 170 |
| Cc1cccc2ccnc(N(C(=O)c3ccc(Nc4nccc(C5CCNCC5)n4)cc3F)[C@@H]3CCCNC3)c12 [Example 662, (R)-2-fluoro-N-(8-methylisoquinolin-1-yl)-N-(piperidin-3-yl)-4-((4-(piperidin-4-yl)pyrimidin-2-yl)amino)benzamide] | 400 |
| Cc1cccc2ccnc(N(C(=O)c3ccc(Nc4nccc(C5CCOCC5)n4)cc3F)[C@@H]3CCCNC3)c12 [Example 663, (R)-2-fluoro-N-(8-methylisoquinolin-1-yl)-N-(piperidin-3-yl)-4-((4-(tetrahydro-2H-pyran-4-yl)pyrimidin-2-yl)amino)benzamide] | 110 |
| Cc1nnc(-c2ccc(C(=O)N(c3nccc4c(Cl)cn(C)c34)[C@@H]3CCCNC3)c(F)c2)s1 [Example 664, (R)—N-(3-chloro-1-methyl-1H-pyrrolo[2,3-c]pyridin-7-yl)-2-fluoro-4-(5-methyl-1,3,4-thiadiazol-2-yl)-N-(piperidin-3-yl)benzamide] | 200 |
| Cc1cccc2ccnc(N(C(=O)c3ccc(Nc4nccc(C5=CCNCC5)n4)cc3F)[C@@H]3CCCNC3)c12 [Example 665, (R)-2-fluoro-N-(8-methylisoquinolin-1-yl)-N-(piperidin-3-yl)-4-((4-(1,2,3,6-tetrahydropyridin-4-yl)pyrimidin-2-yl)amino)benzamide] | 250 |
| CCc1nnc(-c2ccc(C(=O)N(c3nccc4sc(C)nc34)[C@@H]3CCCNC3)c(F)c2)s1 [Example 667, (R)-4-(5-ethyl-1,3,4-thiadiazol-2-yl)-2-fluoro-N-(2-methylthiazolo[4,5-c]pyridin-4-yl)-N-(piperidin-3-yl)benzamide] | 55 |
| CCc1nnc(-c2ccc(C(=O)N(c3nccc4scc(Cl)c34)[C@@H]3CCCNC3)nc2)s1 [Example 668, N-(3-chlorothieno[3,2-c]pyridin-4-yl)-5-(5-ethyl-1,3,4-thiadiazol-2-yl)-N-[(3R)-3-piperidyl]pyridine-2-carboxamide] | 250 |
| CCc1nnc(-c2ccc(C(=O)N(c3nccc4c(C)csc34)[C@@H]3CCCNC3)nc2)s1 [Example 669, 5-(5-ethyl-1,3,4-thiadiazol-2-yl)-N-(3-methylthieno[2,3-c]pyridin-7-yl)-N-[(3R)-3-piperidyl]pyridine-2-carboxamide] | 3200 |
| CCc1nnc(-c2ccc(C(=O)N(c3nccc4scc(C)c34)[C@@H]3CCCNC3)nc2)s1 [Example 670, (R)-5-(5-ethyl-1,3,4-thiadiazol-2-yl)-N-(3-methylthieno[3,2-c]pyridin-4-yl)-N-(piperidin-3-yl)picolinamide] | 170 |
| CCc1nnc(-c2ccc(C(=O)N(c3nccc4cc(C)cc(C)c34)[C@@H]3CCCNC3)nc2)s1 [Example 671, (R)—N-(6,8-dimethylisoquinolin-1-yl)-5-(5-ethyl-1,3,4-thiadiazol-2-yl)-N-(piperidin-3-yl)picolinamide] | 130 |
